Test [1] addresses T1, delta opioid receptor (Rattus norvegicus, UniProt P33533).
T1 construct: the forebrains were homogenized in Tris buffer in a Teflon®-glass homogenizer; from tissue; host or cells: forebrain of male Wistar rats (particulate membrane preparation)
The test can be described thus: Rat brain delta opioid receptor binding assay. The note with it: rat forebrain membranes, [3H]DPDPE or [3H]naltrindole, 25° C., 2.5 h. As to the method:
Rat Brain Delta Opioid Receptor Binding Assay
(§1) Procedure: Male, Wistar rats (150-250 g, VAF, Charles River, Kingston, N.Y.) were killed by CO2, and their brains removed and placed immediately in ice cold Tris HCl buffer (50 mM, pH 7.4). The forebrains were separated from the remainder of the brain by a coronal transection, beginning dorsally at the colliculi and passing ventrally through the midbrain-pontine junction. After dissection, the forebrains were homogenized in Tris buffer in a Teflon®-glass homogenizer. The homogenate was diluted to a concentration of 1 g of forebrain tissue per 80 mL Tris and centrifuged at 39,000×g for 10 min. The pellet was resuspended in the same volume of Tris buffer containing 5 mM MgCl2 with several brief pulses from a Polytron homogenizer. This particulate preparation was used for the delta opioid binding assays.
Analysis: The data from the scintillation counter were used to calculate either the % inhibition compared to control binding (when only a single concentration of test compound was evaluated) or a Ki value (when a range of concentrations was tested). Percent inhibition was calculated as: [(total dpm−test compound dpm)/(total dpm−nonspecific dpm)]*100. Kd and Ki values were calculated using GraphPad PRISM data analysis program.

Test [2] concerns the target T2, mu opioid receptor (Rattus norvegicus, UniProt P33535).
T2 construct: the forebrains were homogenized in Tris buffer in a Teflon®-glass homogenizer; from tissue; host or cells: forebrain of male Wistar rats (particulate membrane preparation)
The experiment in a line: Rat brain mu opioid receptor binding assay. The conditions noted are these: rat forebrain membranes, [3H]DAMGO, 25° C., 2.5 h. Here is the method: Rat Brain Mu Opioid Receptor Binding Assay
as §1
Analysis: The data from the scintillation counter were used to calculate either the % inhibition compared to control binding (when only a single concentration of test compound was evaluated) or a Ki value (when a range of concentrations tested). Percent inhibition was calculated as: [(total dpm−test compound dpm)/(total dpm−nonspecific dpm)]*100. Kd and Ki values were calculated using GraphPad PRISM data analysis program.

The mark [3] stands for this setting: rDOR (Ki, nM): Rat delta opioid receptor binding constant.
The mark [4] stands for this setting: rMOR (Ki, nM): Rat mu opioid receptor binding constant.
The mark [5] stands for this setting: read-out: rDOR (Ki, nM): Rat delta opioid receptor binding constant.
Where [6] appears, read: read-out: rMOR (Ki, nM): Rat mu opioid receptor binding constant.

Consider 25 compounds from patent US20090275610A1, “TRICYCLIC OPIOID MODULATORS” (priority 2005, published 2009).

Where two headings read alike, the source gives them in different places. Some results are limits rather than exact numbers.

T2 sequence (P33535 whole entry): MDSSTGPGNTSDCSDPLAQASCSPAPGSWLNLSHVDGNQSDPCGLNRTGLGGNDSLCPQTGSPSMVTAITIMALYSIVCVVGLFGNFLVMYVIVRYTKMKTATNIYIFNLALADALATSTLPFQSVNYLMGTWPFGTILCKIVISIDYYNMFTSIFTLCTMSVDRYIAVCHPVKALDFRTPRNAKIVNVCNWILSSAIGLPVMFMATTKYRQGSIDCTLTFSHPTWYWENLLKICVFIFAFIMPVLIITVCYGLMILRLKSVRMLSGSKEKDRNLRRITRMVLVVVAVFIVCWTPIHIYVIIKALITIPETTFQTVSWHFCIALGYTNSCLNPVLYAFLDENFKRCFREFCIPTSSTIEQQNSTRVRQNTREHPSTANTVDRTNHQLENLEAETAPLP
T1 sequence (P33533 whole entry): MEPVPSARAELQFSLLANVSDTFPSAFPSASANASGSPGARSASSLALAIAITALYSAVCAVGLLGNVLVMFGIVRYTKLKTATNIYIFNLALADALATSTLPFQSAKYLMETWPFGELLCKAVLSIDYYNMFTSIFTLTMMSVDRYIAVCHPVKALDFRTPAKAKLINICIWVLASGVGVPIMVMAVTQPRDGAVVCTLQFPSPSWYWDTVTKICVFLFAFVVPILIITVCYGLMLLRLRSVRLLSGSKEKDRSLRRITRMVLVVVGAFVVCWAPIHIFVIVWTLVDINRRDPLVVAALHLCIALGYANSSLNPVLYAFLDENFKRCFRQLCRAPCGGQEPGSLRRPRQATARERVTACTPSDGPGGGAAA

As to `CN(C)C(=O)c1cccc2c1Oc1ccccc1C2=C1CC2CCC(C1)N2` [Cpd 11, 9-(8-Azabicyclo[3.2.1]oct-3-ylidene)-9H-xanthene-4-carboxylic acid dimethylamide], the Ki in test [1] (setting [3]) worked out at 3110 nM; in test [2] (setting [4]), 471 nM.
On the same counts, the results for `O=C(N1C2CCC1CC(=C1c3ccccc3Oc3c(O)cccc31)C2)C(F)(F)F` (single isomer, unassigned) [Cpd 5, 2,2,2-Trifluoro-1-[3-(4-hydroxy-xanthen-9-ylidene)-8-azabicyclo[3.2.1]oct-8-yl]-ethanone] are 2110 nM and 5620 nM.
Consider `COC(=O)c1cccc2c1Oc1ccccc1C2=C1CC2CCC(C1)N2C(=O)C(F)(F)F` [Cpd 7, 9-[8-(2,2,2-Trifluoroacetyl)-8-azabicyclo[3.2.1]oct-3-ylidene]-9H-xanthene-4-carboxylic acid methyl ester], for which the Ki in test [1] (setting [3]) and in test [2] (setting [4]) was > 10000 nM each time.
Regarding `c1cncc(Nc2cccc3c2Oc2ccccc2C3=C2CC3CCC(C2)N3)c1` [Cpd 62, [9-(8-Azabicyclo[3.2.1]oct-3-ylidene)-9H-xanthen-4-yl]-pyridin-3-yl-amine], the Ki in test [1] (setting [3]) came out at 108 nM; in test [2] (setting [4]), 159 nM.
For `CN1CCC(=C2c3ccccc3Oc3c(O)cccc32)CC1` [Cpd 18, 9-(1-Methyl-piperidin-4-ylidene)-9H-xanthen-4-ol] the same measures were 330 nM and 4610 nM.
On the same counts, the results for `O=C(NCCc1ccccc1)c1cccc2c1Oc1ccccc1C2=C1CC2CCC(C1)N2` (single isomer, unassigned) [Cpd 55, 9-(8-Azabicyclo[3.2.1]oct-3-ylidene)-9H-xanthene-4-carboxylic acid phenethylamide] are 100 nM and 200 nM.
In the case of `Oc1cccc2c1Oc1ccccc1C2=C1CC2CCC(C1)N2Cc1cccc2cnccc12` [Cpd 35], the Ki in test [1] (setting [5]) was 180 nM; in test [2] (setting [6]), 286 nM.
Take `Oc1cccc2c1Oc1ccccc1C2=C1CC2CCC(C1)N2Cc1ccccn1` (single isomer, unassigned) [Cpd 60, 9-(8-Pyridin-2-ylmethyl-8-azabicyclo[3.2.1]oct-3-ylidene)-9H-xanthen-4-ol]: the Ki in test [1] (setting [3]) and in test [2] (setting [4]) was 0.01 nM throughout.
As to `NC(=O)c1cccc2c1Oc1ccccc1C2=C1C[C@H]2CC[C@@H](C1)N2C(=O)C(F)(F)F` (single isomer, unassigned) [Cpd 36, (+)-9-[8-(2,2,2-Trifluoroacetyl)-8-azabicyclo[3.2.1]oct-3-ylidene]-9H-xanthene-4-carboxylic acid amide], the Ki in test [1] (setting [5]) was 1790 nM; in test [2] (setting [6]) it was > 10000 nM.
Take `O=C(N1C2CCC1CC(=C1c3ccccc3Oc3c(O)cccc31)C2)C(F)(F)F` (single isomer, unassigned) [Cpd 6, 2,2,2-Trifluoro-1-[3-(4-hydroxy-xanthen-9-ylidene)-8-azabicyclo[3.2.1]oct-8-yl]-ethanone]: the Ki was 8500 nM in test [1] (setting [3]) and > 10000 nM in test [2] (setting [4]).
On the same counts, the results for `CN1C2CCC1CC(=C1c3ccccc3Oc3c(O)cccc31)C2` (single isomer, unassigned) [Cpd 52, 9-(8-Methyl-8-azabicyclo[3.2.1]oct-3-ylidene)-9H-xanthen-4-ol] are 323 nM and 1320 nM.
With `Oc1cccc2c1Oc1ccccc1C2=C1CC2CCC(C1)N2Cc1csc2ccccc12` [Cpd 33], the Ki in test [1] (setting [5]) was 137 nM; in test [2] (setting [6]), 168 nM.
With `COc1cccc2c1Oc1ccccc1C2=C1CC2CCC(C1)N2` [Cpd 1], the results for the Ki in test [1] (setting [5]) and in test [2] (setting [6]) were 3800 nM and 1790 nM, respectively.
As to `CN(C)CCNC(=O)c1cccc2c1Oc1ccccc1C2=C1CC2CCC(C1)N2` [Cpd 15, 9-(8-Azabicyclo[3.2.1]oct-3-ylidene)-9H-xanthene-4-carboxylic acid (2-dimethylaminoethyl)-amide], the Ki in test [1] (setting [3]) was found to be 1420 nM; in test [2] (setting [4]), 336 nM.
With `CN1C2CCCC1CC(=C1c3ccccc3Oc3c(O)cccc31)C2` [Cpd 17, 9-(9-Methyl-9-azabicyclo[3.3.1]non-3-ylidene)-9H-xanthen-4-ol], the Ki in test [1] (setting [3]) was 132 nM; in test [2] (setting [4]) it was 221 nM.
On the same counts, the results for `Oc1cccc2c1Oc1ccccc1C2=C1CC2CCC(C1)N2Cc1cccnc1` (single isomer, unassigned) [Cpd 49, 9-(8-Pyridin-3-ylmethyl-8-azabicyclo[3.2.1]oct-3-ylidene)-9H-xanthen-4-ol] are 62.6 nM and 443 nM.
In the case of `N=C(NO)c1cccc2c1Oc1ccccc1C2=C1CC2CCC(C1)N2` (single isomer, unassigned) [Cpd 42, 9-(8-Aza-bicyclo[3.2.1]oct-3-ylidene)-N-hydroxy-9H-xanthene-4-carboxamidine], the Ki came out at 237 nM in test [1] (setting [5]) and 56.5 nM in test [2] (setting [4]).
As for `c1ccc(Nc2cccc3c2Oc2ccccc2C3=C2CC3CCC(C2)N3)cc1` [Cpd 64, [9-(8-Azabicyclo[3.2.1]oct-3-ylidene)-9H-xanthen-4-yl]-phenylamine], the Ki came out at 862 nM in test [1] (setting [3]) and 2420 nM in test [2] (setting [4]).
On the same counts, the results for `O=C(Nc1ccccc1)c1cccc2c1Oc1ccccc1C2=C1CC2CCC(C1)N2` (single isomer, unassigned) [Cpd 47, 9-(8-Azabicyclo[3.2.1]oct-3-ylidene)-9H-xanthene-4-carboxylic acid phenylamide] are 250 nM and 293 nM.
On the same counts, the results for `O=C(NCc1ccccc1)c1cccc2c1Oc1ccccc1C2=C1CC2CCC(C1)N2` (single isomer, unassigned) [Cpd 53, 9-(8-Azabicyclo[3.2.1]oct-3-ylidene)-9H-xanthene-4-carboxylic acid benzylamide] are 1130 nM and 2030 nM.
On the same counts, the results for `Oc1cccc2c1Oc1ccccc1C2=C1CC2CCC(C1)N2Cc1ccccn1` (single isomer, unassigned) [Cpd 59, 9-(8-Pyridin-2-ylmethyl-8-azabicyclo[3.2.1]oct-3-ylidene)-9H-xanthen-4-ol] are 0.07 nM and 0.39 nM.
On to `Oc1cccc2c1Oc1ccccc1C2=C1CC2CCC(C1)N2` (single isomer, unassigned) [Cpd 9, 9-(8-Azabicyclo[3.2.1]oct-3-ylidene)-9H-xanthen-4-ol], for which the Ki in test [1] (setting [3]) was 68.2 nM; in test [2] (setting [4]), 63.6 nM.
For `N=C(NO)c1cccc2c1Oc1ccccc1C2=C1CC2CCC(C1)N2` (single isomer, unassigned) [Cpd 43, 9-(8-Aza-bicyclo[3.2.1]oct-3-ylidene)-N-hydroxy-9H-xanthene-4-carboxamidine], the Ki in test [1] (setting [5]) and in test [2] (setting [6]) was > 10000 nM throughout.
In the case of `NC(=O)c1cccc2c1Oc1ccccc1C2=C1C[C@H]2CC[C@@H](C1)N2C(=O)C(F)(F)F` (single isomer, unassigned) [Cpd 38, (−)-9-[8-(2,2,2-Trifluoroacetyl)-8-azabicyclo[3.2.1]oct-3-ylidene]-9H-xanthene-4-carboxylic acid amide], the values for the Ki in test [1] (setting [5]) and in test [2] (setting [6]) were 6440 nM and > 10000 nM, respectively.
For the compound `Clc1ccc(Nc2cccc3c2Oc2ccccc2C3=C2CC3CCC(C2)N3)cc1` [Cpd 61, [9-(8-Azabicyclo[3.2.1]oct-3-ylidene)-9H-xanthen-4-yl]-(4-chlorophenyl)-amine], the Ki was determined as 395 nM in test [1] (setting [3]) and 3160 nM in test [2] (setting [4]).
